The molecules below were run against T1, purified human HDAC6 (Homo sapiens, UniProt Q9UBN7) (assay: HDAC6 Enzyme Assay). Details: HDAC6 inhibition at a compound concentration of 0.412 μM; read-out: Percent Inhibition at 0.412 μM.
T1 construct: purchased BPS Bioscience 5006
T1 sequence (Q9UBN7 1-1215): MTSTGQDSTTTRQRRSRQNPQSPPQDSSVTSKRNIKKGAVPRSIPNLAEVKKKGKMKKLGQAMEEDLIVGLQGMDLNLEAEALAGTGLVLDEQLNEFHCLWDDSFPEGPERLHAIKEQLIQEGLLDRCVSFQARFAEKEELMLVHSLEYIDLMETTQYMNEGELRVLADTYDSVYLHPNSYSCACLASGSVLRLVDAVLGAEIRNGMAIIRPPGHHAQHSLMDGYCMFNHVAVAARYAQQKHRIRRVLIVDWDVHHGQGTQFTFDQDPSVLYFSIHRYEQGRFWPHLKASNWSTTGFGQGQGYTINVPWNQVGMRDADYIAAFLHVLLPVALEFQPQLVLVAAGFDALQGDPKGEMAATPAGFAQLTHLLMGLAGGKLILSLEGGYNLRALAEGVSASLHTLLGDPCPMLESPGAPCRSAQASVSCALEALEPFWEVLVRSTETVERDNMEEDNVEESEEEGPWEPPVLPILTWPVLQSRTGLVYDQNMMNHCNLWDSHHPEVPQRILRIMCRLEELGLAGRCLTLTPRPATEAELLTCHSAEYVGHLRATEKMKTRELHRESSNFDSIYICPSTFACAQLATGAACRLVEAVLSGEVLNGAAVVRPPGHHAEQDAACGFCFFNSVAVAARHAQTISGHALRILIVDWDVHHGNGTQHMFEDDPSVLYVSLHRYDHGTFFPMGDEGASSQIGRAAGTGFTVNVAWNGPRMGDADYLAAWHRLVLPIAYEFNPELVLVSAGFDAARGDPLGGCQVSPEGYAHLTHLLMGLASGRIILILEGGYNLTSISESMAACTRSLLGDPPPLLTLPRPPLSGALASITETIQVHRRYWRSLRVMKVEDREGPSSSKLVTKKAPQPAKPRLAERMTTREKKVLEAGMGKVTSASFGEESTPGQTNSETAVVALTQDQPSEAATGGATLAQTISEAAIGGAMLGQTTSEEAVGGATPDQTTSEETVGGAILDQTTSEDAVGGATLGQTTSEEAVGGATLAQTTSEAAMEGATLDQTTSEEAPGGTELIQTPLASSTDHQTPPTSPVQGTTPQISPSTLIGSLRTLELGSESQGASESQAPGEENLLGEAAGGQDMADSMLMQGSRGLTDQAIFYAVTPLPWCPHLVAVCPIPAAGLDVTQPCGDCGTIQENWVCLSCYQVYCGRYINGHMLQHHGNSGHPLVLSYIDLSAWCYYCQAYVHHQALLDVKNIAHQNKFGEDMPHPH
Format: biochemical
Method: To measure the inhibition of HDAC6 activity, purified human HDAC6 (BPS Bioscience; Cat. No. 5006) is incubated with substrate Ac-Arg-Gly-Lys(Ac)-AMC peptide (Bachem Biosciences; Cat. No. I-1925) for 1 hour at 30° C. in the presence of test compounds or vehicle DMSO control. The reaction is stopped with the HDAC inhibitor trichostatin A (Sigma; Cat. No. T8552) and the amount of Arg-Gly-Lys-AMC generated is quantitated by digestion with trypsin (Sigma; Cat. No. T1426) and subsequent measurement of the amount of AMC released using a fluorescent plate reader (Pherastar; BMG Technologies) set at Ex 340 nm and Em 460 nm. Concentration response curves are generated by calculating the fluorescence increase in test compound-treated samples relative to DMSO-treated controls, and enzyme inhibition (IC50) values are determined from those curves.
For `O=C(Cc1c(F)cccc1F)NC1CCCc2cc(C(=O)NO)ccc21` (stereo not shown) [Compound I-1, 5-{[(2,6-difluorophenyl)acetyl]amino}-N-hydroxy-5,6,7,8-tetrahydronaphthalene-2-carboxamide], the inhibition at 0.412 µM was 34%.
With `CCc1cc(C(=O)NC2CCCc3cc(C(=O)NO)ccc32)n(C)n1` (stereo not shown) [Compound I-2, 3-ethyl-N-{6-[(hydroxyamino)carbonyl]-1,2,3,4-tetrahydronaphthalen-1-yl}-1-methyl-1H-pyrazole-5-carboxamide] the inhibition at 0.412 µM was 35%.
`O=C(NO)c1ccc2c(c1)CCCC2NC(=O)c1ccsc1` (stereo not shown) [Compound I-3, N-{6-[(hydroxyamino)carbonyl]-1,2,3,4-tetrahydronaphthalen-1-yl}thiophene-3-carboxamide] gave an inhibition at 0.412 µM of 36%.
For `CC(C)(C)CC(=O)NC1CCCc2cc(C(=O)NO)ccc21` (stereo not shown) [Compound I-5, 5-[(3,3-dimethylbutanoyl)amino]-N-hydroxy-5,6,7,8-tetrahydronaphthalene-2-carboxamide], the inhibition at 0.412 µM was 11%.
Molecule `CC(C)(C)C(=O)NC1CCCc2cc(C(=O)NO)ccc21` (stereo not shown) [Compound I-6, 5-[(2,2-dimethylpropanoyl)amino]-N-hydroxy-5,6,7,8-tetrahydronaphthalene-2-carboxamide] has an inhibition at 0.412 µM of 18%.
In the case of `Cc1nc(C(F)(F)F)c(C(=O)NC2CCCc3cc(C(=O)NO)ccc32)s1` (stereo not shown) [Compound I-7, N-{6-[(hydroxyamino)carbonyl]-1,2,3,4-tetrahydronaphthalen-1-yl}-2-methyl-4-(trifluoromethyl)-1,3-thiazole-5-carboxamide], the inhibition at 0.412 µM is reported as 22%.
`O=C(NO)c1ccc2c(c1)CCCC2NC(=O)c1cccc(C(F)(F)F)c1` (stereo not shown) [Compound I-8, N-hydroxy-5-{[3-(trifluoromethyl)benzoyl]amino}-5,6,7,8-tetrahydronaphthalene-2-carboxamide] gave an inhibition at 0.412 µM of 33%.
`O=C(NO)c1ccc2c(c1)CCCC2NC(=O)c1cnc2ccccc2n1` (stereo not shown) [Compound I-9, N-{6-[(hydroxyamino)carbonyl]-1,2,3,4-tetrahydronaphthalen-1-yl}quinoxaline-2-carboxamide] showed an inhibition at 0.412 µM of 47%.
`O=C(Cc1ccc(C(F)(F)F)cc1)NC1CCCc2cc(C(=O)NO)ccc21` (stereo not shown) [Compound I-10, N-hydroxy-5-({[4-(trifluoromethyl)phenyl]acetyl}amino)-5,6,7,8-tetrahydronaphthalene-2-carboxamide] gave an inhibition at 0.412 µM of 20%.
Molecule `Cc1cc(C)n(CC(=O)NC2CCCc3cc(C(=O)NO)ccc32)n1` (stereo not shown) [Compound I-11, 5-{[(3,5-dimethyl-1H-pyrazol-1-yl)acetyl]amino}-N-hydroxy-5,6,7,8-tetrahydronaphthalene-2-carboxamide] has an inhibition at 0.412 µM of 21%.
`O=C(NO)c1ccc2c(c1)CCCC2NC(=O)c1cc(C(F)(F)F)cc(C(F)(F)F)c1` (stereo not shown) [Compound I-12, 5-{[3,5-bis(trifluoromethyl)benzoyl]amino}-N-hydroxy-5,6,7,8-tetrahydronaphthalene-2-carboxamide] gave an inhibition at 0.412 µM of 15%.
`O=C(NO)c1ccc2c(c1)CCCC2NC(=O)C(C1CCCCC1)C1CCCCC1` (stereo not shown) [Compound I-13, 5-[(dicyclohexylacetyl)amino]-N-hydroxy-5,6,7,8-tetrahydronaphthalene-2-carboxamide] showed an inhibition at 0.412 µM of 10%.
`CC(C)(Oc1ccccc1Cl)C(=O)NC1CCCc2cc(C(=O)NO)ccc21` (stereo not shown) [Compound I-14, 5-{[2-(2-chlorophenoxy)-2-methylpropanoyl]amino}-N-hydroxy-5,6,7,8-tetrahydronaphthalene-2-carboxamide] gave an inhibition at 0.412 µM of 79%.
Molecule `CCC(C)(C)C(=O)NC1CCCc2cc(C(=O)NO)ccc21` (stereo not shown) [Compound I-15, 5-[(2,2-dimethylbutanoyl)amino]-N-hydroxy-5,6,7,8-tetrahydronaphthalene-2-carboxamide] has an inhibition at 0.412 µM of 11%.
`CC(C)(C)c1ccc(C(=O)NC2CCCc3cc(C(=O)NO)ccc32)cc1` (stereo not shown) [Compound I-16, 5-[(4-tert-butylbenzoyl)amino]-N-hydroxy-5,6,7,8-tetrahydronaphthalene-2-carboxamide] gave an inhibition at 0.412 µM of 55%.
With `O=C(NO)c1ccc2c(c1)CCCC2NC(=O)C1CCCCC1` (stereo not shown) [Compound I-17, 5-[(cyclohexylcarbonyl)amino]-N-hydroxy-5,6,7,8-tetrahydronaphthalene-2-carboxamide] the inhibition at 0.412 µM was 19%.
In the case of `Cn1cccc1C(=O)NC1CCCc2cc(C(=O)NO)ccc21` (stereo not shown) [Compound I-18, N-{6-[(hydroxyamino)carbonyl]-1,2,3,4-tetrahydronaphthalen-1-yl}-1-methyl-1H-pyrrole-2-carboxamide], the inhibition at 0.412 µM is reported as 34%.
For `Cc1cc(C(=O)NC2CCCc3cc(C(=O)NO)ccc32)n(C(C)(C)C)n1` (stereo not shown) [Compound I-19, 1-tert-butyl-N-{6-[(hydroxyamino)carbonyl]-1,2,3,4-tetrahydronaphthalen-1-yl}-3-methyl-1H-pyrazole-5-carboxamide], the inhibition at 0.412 µM was 20%.
In the case of `O=C(NO)c1ccc2c(c1)CCCC2NC(=O)c1ccc(C(F)(F)F)cc1` (stereo not shown) [Compound I-20, N-hydroxy-5-{[4-(trifluoromethyl)benzoyl]amino}-5,6,7,8-tetrahydronaphthalene-2-carboxamide], the inhibition at 0.412 µM is reported as 30%.
`O=C(NO)c1ccc2c(c1)CCCC2NC(=O)C12CC3CC(CC(C3)C1)C2` (stereo not shown) [Compound I-21, N-{6-[(hydroxyamino)carbonyl]-1,2,3,4-tetrahydronaphthalen-1-yl}adamantane-1-carboxamide] gave an inhibition at 0.412 µM of 20%.
`Cc1oc(S(=O)(=O)N2CCCC2)cc1C(=O)NC1CCCc2cc(C(=O)NO)ccc21` (stereo not shown) [Compound I-22, N-{6-[(hydroxyamino)carbonyl]-1,2,3,4-tetrahydronaphthalen-1-yl}-2-methyl-5-(pyrrolidin-1-ylsulfonyl)-3-furamide] was tested, and the inhibition at 0.412 µM was 28%.
`O=C(NO)c1ccc2c(c1)CCCC2NC(=O)c1cc2ccccc2s1` (stereo not shown) [Compound I-24, N-{6-[(hydroxyamino)carbonyl]-1,2,3,4-tetrahydronaphthalen-1-yl}-1-benzothiophene-2-carboxamide] was tested, and the inhibition at 0.412 µM was 46%.
Molecule `O=C(CC1C[C@@H]2CC[C@H]1C2)NC1CCCc2cc(C(=O)NO)ccc21` (stereo partly drawn) [Compound I-26, 5-{[(1S,4R)-bicyclo[2.2.1]hept-2-ylacetyl]amino}-N-hydroxy-5,6,7,8-tetrahydronaphthalene-2-carboxamide] has an inhibition at 0.412 µM of 21%.
In the case of `CC(=O)N/C(=C\c1ccccc1)C(=O)NC1CCCc2cc(C(=O)NO)ccc21` (stereo not shown) [Compound I-27, 5-{[(2Z)-2-(acetylamino)-3-phenylprop-2-enoyl]amino}-N-hydroxy-5,6,7,8-tetrahydronaphthalene-2-carboxamide], the inhibition at 0.412 µM is reported as 11%.
`O=C(NO)c1ccc2c(c1)CCCC2NC(=O)c1ccc2ncsc2c1` (stereo not shown) [Compound I-28, N-{6-[(hydroxyamino)carbonyl]-1,2,3,4-tetrahydronaphthalen-1-yl}-1,3-benzothiazole-6-carboxamide] gave an inhibition at 0.412 µM of -2%.
In the case of `O=C(NO)c1ccc2c(c1)CCCC2NC(=O)c1cn2cc(Cl)ccc2n1` (stereo not shown) [Compound I-29, 6-chloro-N-{6-[(hydroxyamino)carbonyl]-1,2,3,4-tetrahydronaphthalen-1-yl}imidazo[1,2-a]pyridine-2-carboxamide], the inhibition at 0.412 µM is reported as 70%.
`CC(C)C(C(=O)NC1CCCc2cc(C(=O)NO)ccc21)c1ccccc1` (stereo not shown) [Compound I-31, N-hydroxy-5-[(3-methyl-2-phenylbutanoyl)amino]-5,6,7,8-tetrahydronaphthalene-2-carboxamide] was tested, and the inhibition at 0.412 µM was 17%.
`O=C(NO)c1ccc2c(c1)CCCC2NC(=O)c1sc2ccccc2c1Cl` (stereo not shown) [Compound I-32, 3-chloro-N-{6-[(hydroxyamino)carbonyl]-1,2,3,4-tetrahydronaphthalen-1-yl}-1-benzothiophene-2-carboxamide] gave an inhibition at 0.412 µM of 69%.

Reference: US20140243335A1, “SUBSTITUTED HYDOXAMIC ACIDS AND USES THEREOF” (Millennium Pharmaceuticals, Inc., priority 2010, published 2014)
